# Laboratory results taken from PMC7870638, “Toxicity of anticancer drugs in human placental tissue explants and trophoblast cell lines” (Archives of Toxicology, 2020).
# Experiments:
# [1] = design: method as in Berveiller and Mir [2012]; Soininen et al. [2015]; conditions: ref Berveiller and Mir [2012]; Soininen et al. [2015]; cited from earlier work
# [2] = system: progesterone and estrone release in placental explants; test: Steroid (progesterone, estrone) release in placental explants, LC-MS/MS of culture medium; type: cell-based, human; conditions: placental explants, 1, 10 and 100 µM, after 24 h
# Experimental: (§1) Term placentas, obtained from consenting women following uncomplicated pregnancies and delivered vaginally or by caesarean section, were used for all experiments. Approval of the Regional Committee on Research involving Human Subjects was obtained (File 2014-1397). Within 60 min after delivery, 1 cm^3 villous tissue samples were excised at random areas midway between the umbilical cord and distal edge of the placenta. To remove maternal blood, samples were carefully rinsed in sterile Dulbecco’s phosphate-buffered saline supplemented with calcium chloride and magnesium chloride (Sigma-Aldrich, St. Louis, MO, USA) which was kept at 37 °C. The villous tissue was cut into small pieces weighing approximately 5 mg, after which 4–6 pieces of tissue were cultured together in individual wells of a 6-well plate. The explants were cultured in 1.5 ml of RPMI-1640 culture medium (Gibco, USA) with 15% heat-inactivated fetal bovine serum, 1% penicillin streptomycin, 1% gentamicin, and 1% amphotericin B (Life Technologies, USA). Placental explant cultures were kept for 7 days at 37 °C in a humidified gas mixture of 5% CO2 and 95% air. The culture medium was renewed every 24 h.
# Treatment with TKIs or cytostatic drugs was started at day four of culture to allow for the syncytiotrophoblasts to regenerate (Siman et al. [2001]). Explants were then incubated for 72 h with 1, 10 or 100 µM of all TKIs or cytostatic drugs mentioned above. […] For cisplatin and carboplatin, culture medium was used as a solvent. Culture medium was replaced every 24 h with new medium containing the original concentration of the drug. Supernatant was collected each day and stored at − 20 °C for hormone quantification.
# Progesterone and estrone concentrations in culture medium were determined by LC–MS/MS analysis using an Acquity UPLC (Waters, Milford, MA, USA) equipped with a C18 UPLC column (Acquity UPLC BEH C18, 2.1 × 50 mm, Milford, MA, USA, Waters) coupled to a Xevo TQ-S (Waters) triple quadrupole mass spectrometer. Progesterone-D9 was used as internal standard and calibration curves were made in the matrix. To precipitate proteins, methanol containing the internal standard was added to culture medium samples in a ratio 3:1 (MeOH:medium). Following subsequent centrifugation (13,000g for 3 min), 1 μl of the clear supernatant was injected into the LC–MS to quantify progesterone and estrone. Solvent A consisted of 0.2 mM NH4F in water and solvent B consisted of 0.2 mM NH4F in Acetonitrile:Methanol in a ratio of 75:25%. Separation was performed at a flow rate of 350 µl/min under the following gradient conditions: 0 min 60% eluent A, 3.0 min 0% eluent A, 4 min 0% eluent A, 5 min 60% eluent A. The effluent from the UPLC was passed directly into the electrospray ion source. Positive electrospray ionization was achieved using nitrogen as a desolation gas with ionization voltage at 600 V. The source temperature was set at 500 °C and argon was used as collision gas. The following SRM transitions were used: m/z 315.10 (parent ion) to m/z 69.9 and m/z 108.9 (both product ions) for progesterone, m/z 269.0 (parent ion) to m/z 144.9 and 158.9 (product ions) for estrone, and m/z 324.2 (parent ion) to m/z 99.9 and m/z 112.9 (product ions) for the internal standard d9-progesterone. We also attempted to quantify estradiol and estriol levels in the culture medium of both explants and cells, but these were below the detection limit.
# Construction of graphs and data analysis were performed using Graphpad Prism version 8.4.2. MTT conversion and progesterone and estrone release in placental explants were normalized to tissue wet weight. To compare the effects on tissue viability and cell viability, the data were normalized to control conditions and mean differences were tested using an unpaired t test, a one-way ANOVA, or a two-way repeated measures ANOVA. […]
# [3] = system: JEG-3, BeWo, and syncytialised BeWo cells; test: MTT assay, cell viability in all three trophoblast cell types; type: cell-based, human
# Experimental: Two human choriocarcinoma-derived placental cell lines were used: JEG3 and BeWo (ATCC catalog numbers HTB-36 and CCL-98, respectively). JEG3 cells were cultured in DMEM and Bewo cells in Ham’s F-12 K medium, supplemented with 10% fetal calf serum and 1% penicillin and streptomycin under a humidified 5% CO2/95% air atmosphere at 37 °C. Cells were passaged (JEG3: 1:10 twice a week; BeWo: 1:3 once a week) after trypsinization with 0.05% Trypsin–EDTA when cells reached approximately 80% confluency. For BeWo cells, the medium was renewed 3 times a week. To create syncytialised BeWo cells, regular BeWo cells were treated with 50 μM forskolin (Sigma-Aldrich, St. Louis, MO, USA) in 0.1% DMSO, to initiate syncytialisation. As forskolin increases the intracellular cAMP levels, it activates protein kinase A after which syncytialisation and fusion of trophoblasts occurs (Orendi et al. [2010]).
# The cells were seeded in 96-well culture plates at a cell density of 1 × 10^4 cells/well and cultured for 24 h at 37 °C in a humidified atmosphere with 5% CO2 to allow for attachment. Subsequently, the cells were exposed to the TKIs and cytostatic drugs in concentrations ranging from 100 pM to 100 µM (triplicate). […] This is a minimum percentage DMSO, but required as cells required co-incubation with forskolin to syncytialise. Crizotinib 100 μM was used as positive control. After attachment, cells were incubated with the compounds for 48 h, after which the medium was removed and the cells were exposed to […] diluted in medium. After 3 h of incubation with MTT, the formazan crystals formed were solubilized in 50 μL DMSO. The absorbance of formazan was measured at 540 nm by a Biorad Multiwell Plate reader.
# [4] = MTT assay in placental explants (tissue viability); type: cell-based, human; conditions: female, human, term placental villous tissue explants, 72 h exposure
# Experimental: as §1
# Treatment with TKIs or cytostatic drugs was started at day four of culture to allow for the syncytiotrophoblasts to regenerate (Siman et al. [2001]). Explants were then incubated for 72 h with 1, 10 or 100 µM of all TKIs or cytostatic drugs mentioned above. […] Culture medium was replaced every 24 h with new medium containing the original concentration of the drug. Supernatant was collected each day and stored at − 20 °C for hormone quantification.
# To evaluate tissue and cell viability, after 72 h of drug exposure, tissue explants were incubated for 4 h at 37 °C with 1 mM 3-(4,5-dimethylthiazol-2-yl)-[…] (MTT) in RPMI. After incubation, the medium was removed, the tissue in each well was weighed, and the explants were subsequently placed in 500 µL DMSO for 10 min to dissolve the formazan formed. After 10 min, the DMSO was transferred to a 96-well plate and absorbance was measured at 540 nm using a Biorad Multiwell Plate reader.
# Construction of graphs and data analysis were performed using Graphpad Prism version 8.4.2. MTT conversion and progesterone and estrone release in placental explants were normalized to tissue wet weight. To compare the effects on tissue viability and cell viability, the data were normalized to control conditions and mean differences were tested using an unpaired t test, a one-way ANOVA, or a two-way repeated measures ANOVA. The change in progesterone release rate as compared to the baseline (at 0 h) was calculated for each well separately, after which data were normalized to control conditions. One-way ANOVA was used to assess effects at the 72 h time point only. The Bonferroni post hoc test was applied to compare treatment conditions with controls. Data are described as mean ± SD in Figs. 2 and 3 and as mean ± SEM in all other figures where comparisons of means between groups were made. The mean and SD or SEM were calculated from all individual results (three experiments performed in duplicate or triplicate wells, n = 6 or n = 9).
# BeWo cells = system: BeWo cells; design: method as in Soininen et al. [2015]; conditions: after 4 h of exposure, ref Soininen et al. [2015], read-out: IC50 cell viability; cited from earlier work
smiles,measurement,setting,value
COc1cccc2c1C(=O)c1c(O)c3c(c(O)c1C2=O)C[C@@](O)(C(=O)CO)C[C@@H]3O[C@H]1C[C@H](N)[C@H](O)[C@H](C)O1 [doxorubicin],"uptake in ex vivo perfused placental tissue, % of initial maternal concentrations",[1],38–70%
same,progesterone production (in words),[2],induced progesterone production
same,potency on viability in cells relative to explants (times more potent),[3]; all cell types (48 h) versus placental explants (72 h),approximately 10 times
same,effect on viability (in words),"[3]; all cell types, 1 µM, 48 h exposure",fully inhibited viability in all cell types
same,"viability at 72 h, 1 µM","[4]; 1 µM, read-out: viability in explants, % of control values",83 ± 7%
same,"viability at 72 h, 100 µM","[4]; 100 µM, mean ± SEM, read-out: tissue viability, % of control",14 ± 2%
same,IC50,BeWo cells,600 nM
